{"source": "ChEMBL document CHEMBL5375988", "about": "“AcGlcAs: A Novel P53-Targeting Arsenical with Potent Cellular Uptake and Cancer Cell Selectivity” (J Med Chem, 2023)", "key": {"[1]": {"system": "Cellular tumor antigen p53 (Homo sapiens), P04637 [V272M]", "assay": "Restoration of p53-V272M mutant transcriptional activity on PUMA promoter in human NCI-H1299 cells at 2.5 to 10 uM pretreated with methyl-beta-cyclodextrin for 30 mins followed by compound addition for 10 mins and further incubation in fresh medium for 24 hrs by firefly/renilla based luciferase reporter assay", "format": "cell-based", "settings": "dose 2.5-10 µM"}, "[2]": {"molecular_target": "T1, PML-RARalpha (Homo sapiens) (UniProt P10276+P29590)", "T1 sequence (P10276 whole entry, looked up)": "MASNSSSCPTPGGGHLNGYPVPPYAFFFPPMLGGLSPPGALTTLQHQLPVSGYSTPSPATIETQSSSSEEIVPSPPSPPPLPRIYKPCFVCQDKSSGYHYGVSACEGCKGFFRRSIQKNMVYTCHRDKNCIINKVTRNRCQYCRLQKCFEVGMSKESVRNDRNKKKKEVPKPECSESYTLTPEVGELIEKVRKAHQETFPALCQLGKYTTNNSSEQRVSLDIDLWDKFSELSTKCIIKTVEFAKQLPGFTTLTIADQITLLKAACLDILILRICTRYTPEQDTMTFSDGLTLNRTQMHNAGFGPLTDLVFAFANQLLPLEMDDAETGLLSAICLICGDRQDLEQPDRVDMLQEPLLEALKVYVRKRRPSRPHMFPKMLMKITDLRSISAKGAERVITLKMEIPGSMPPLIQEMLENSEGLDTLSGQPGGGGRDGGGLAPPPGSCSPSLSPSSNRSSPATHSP", "T1 sequence (P29590 whole entry, looked up)": "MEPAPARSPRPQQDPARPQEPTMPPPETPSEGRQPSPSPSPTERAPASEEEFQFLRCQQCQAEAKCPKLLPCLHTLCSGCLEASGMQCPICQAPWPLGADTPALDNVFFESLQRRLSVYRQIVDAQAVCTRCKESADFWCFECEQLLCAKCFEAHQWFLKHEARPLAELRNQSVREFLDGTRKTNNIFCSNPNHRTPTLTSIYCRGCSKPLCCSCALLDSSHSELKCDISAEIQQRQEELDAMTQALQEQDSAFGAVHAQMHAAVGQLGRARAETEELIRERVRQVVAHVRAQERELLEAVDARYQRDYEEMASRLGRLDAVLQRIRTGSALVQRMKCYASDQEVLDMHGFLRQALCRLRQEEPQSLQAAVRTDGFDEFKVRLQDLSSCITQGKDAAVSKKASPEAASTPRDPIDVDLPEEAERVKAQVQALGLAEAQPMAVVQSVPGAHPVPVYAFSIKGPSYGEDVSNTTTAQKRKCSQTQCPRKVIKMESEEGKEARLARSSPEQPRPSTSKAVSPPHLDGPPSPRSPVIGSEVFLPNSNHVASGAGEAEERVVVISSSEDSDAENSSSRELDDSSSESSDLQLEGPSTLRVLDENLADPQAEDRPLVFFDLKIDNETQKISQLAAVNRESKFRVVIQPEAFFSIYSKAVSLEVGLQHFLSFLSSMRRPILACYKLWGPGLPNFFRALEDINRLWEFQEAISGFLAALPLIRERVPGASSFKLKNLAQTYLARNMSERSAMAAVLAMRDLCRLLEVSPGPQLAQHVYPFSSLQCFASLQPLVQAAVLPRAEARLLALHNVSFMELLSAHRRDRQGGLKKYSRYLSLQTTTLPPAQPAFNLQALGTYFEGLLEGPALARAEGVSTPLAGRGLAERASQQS", "assay": "Induction of PML/RARalpha degradation in human NB4 cells assessed as appearance of large PML speckles characteristic of normal nuclear bodies at 3 uM incubated for 1 hrs followed by replacement with fresh culture medium and measured after 0.5 to 24 hrs by immunofluorescence analysis", "format": "cell-based"}, "[3]": {"molecular_target": "T1, PML-RARalpha (Homo sapiens)", "assay": "Induction of PML/RARalpha degradation in human NB4 cells assessed as decrease in micropunctuates at 3 uM incubated for 1 hrs followed by replacement with fresh culture medium and measured after 0.5 to 24 hrs by immunofluorescence analysis", "format": "cell-based"}, "[4]": {"system": "HL-60", "assay": "Upregulation of MDM2 mRNA expression in human HL-60 cells overexpressing p53-V272M mutant at 2 uM pretreated for 1 hr followed by culturing in fresh medium for 8 hrs by RT-qPCR analysis", "format": "functional, cell-based"}, "[5]": {"system": "NCI-H1299", "assay": "Upregulation of p21 protein expression in human NCI-H1299 cells overexpressing p53-V272M mutant pretreated for 1 hr followed by culturing in fresh medium for 16 hrs by Western blot analysis", "format": "functional, cell-based"}, "[6]": {"system": "U-937", "assay": "Induction of intrinsic apoptosis in human U-937 cells overexpressing p53-V272M mutant assessed as upregulation of BAX gene expression by RT-qPCR analysis", "format": "functional, cell-based"}, "[7]": {"system": "NCI-H1299", "assay": "Upregulation of CDKN1A mRNA expression in human NCI-H1299 cells overexpressing p53-V272M mutant at 2 uM pretreated for 1 hr followed by culturing in fresh medium for 8 hrs by RT-qPCR analysis", "format": "functional, cell-based"}, "[8]": {"system": "U-937", "assay": "Antitumor activity against GFP-tagged human U-937 cells harboring p53 V272M mutant xenografted in M-NSG mouse assessed as decrease in leukemia cell population in spleen at 25 mg/kg, ip administered for 9 days starting from 7 days post inoculation and measured on day 2,6 and 9 by FACS analysis", "format": "functional, organism-based", "settings": "time 9.0 day"}, "[9]": {"molecular_target": "T1, PML-RARalpha (Homo sapiens)", "assay": "Induction of PML/RARalpha degradation in human NB4 cells assessed as residual protein level at 9 uM incubated for 1 hrs followed by replacement with fresh culture medium and measured after 16 hrs by Western blot analysis (reference value: 1)", "format": "cell-based"}, "[10]": {"molecular_target": "T1, PML-RARalpha (Homo sapiens)", "assay": "Induction of PML/RARalpha degradation in human NB4 cells assessed as downregulation of DLK1 mRNA expression incubated for 1 hrs followed by replacement with fresh culture medium for 6 hrs by RT-qPCR analysis", "format": "cell-based", "settings": "dose 0.3-3 µM"}, "[11]": {"system": "U-937", "assay": "Induction of senescence in human U-937 cells overexpressing p53-V272M mutant assessed as upregulation of CDKN1A gene expression by RT-qPCR analysis", "format": "functional, cell-based"}, "[12]": {"system": "U-937", "assay": "Antitumor activity against luciferase transduced human U-937 cells harboring p53 V272M mutant xenografted in M-NSG mouse assessed as median survival at 10 mg/kg, iv administered daily for 11 days (reference value: 11 day)", "format": "functional"}, "[13]": {"system": "U-937", "assay": "Upregulation of PUMA mRNA expression in human U-937 cells overexpressing p53-V272M mutant pretreated for 1 hr followed by culturing in fresh medium for 4 hrs by RT-qPCR analysis", "format": "functional, cell-based"}, "[14]": {"assay": "Clearance in ICR mouse at 10 mg/kg, iv measured upto 24 hrs by ICP-MS analysis relative to hepatic blood flow", "format": "ADME, organism-based", "settings": "in vivo"}, "[15]": {"molecular_target": "T1, PML-RARalpha (Homo sapiens)", "assay": "Induction of PML/RARalpha degradation in human NB4 cells assessed as downregulation of FCGR1B mRNA expression incubated for 1 hrs followed by replacement with fresh culture medium for 6 hrs by RT-qPCR analysis", "format": "cell-based", "settings": "dose 0.3-3 µM"}, "[16]": {"system": "U-937", "assay": "Antitumor activity against human U-937 cells harboring p53 V272M mutant xenografted in M-NSG mouse assessed as median survival at 25 mg/kg, ip administered daily for 11 days (reference value: 11 day)", "format": "functional"}, "[17]": {"assay": "Drug uptake in human U-937 cells harboring p53-V272M mutant at 10 uM measured after 10 mins by ICP-MS analysis", "format": "ADME, cell-based", "settings": "u-937, 10 min"}, "[18]": {"system": "U-937", "assay": "Antitumor activity against GFP-tagged human U-937 cells harboring p53 V272M mutant xenografted in M-NSG mouse assessed as appearance of smaller and lighter spleen at 25 mg/kg, ip administered for 9 days starting from 7 days post inoculation and measured on day 2 and 6", "format": "functional, organism-based", "settings": "time 9.0 day"}, "[19]": {"system": "U-937", "assay": "Inhibition of colony formation in human U-937 cells harboring p53-V272M mutant at 0.5 to 8 uM pretreated for 1 hr followed by culturing in fresh medium and measured on day 14 by crystal violet staining based assay", "format": "functional, cell-based", "settings": "dose 0.5-8 µM"}, "[20]": {"system": "U-937", "assay": "Induction of cell cycle arrest in human U-937 cells harboring p53-V272M mutant at 0.5 to 8 uM pretreated for 1 hr followed by culturing in fresh medium for 24 hrs by RNase/PI staining based flow cytometry analysis", "format": "functional", "settings": "dose 0.5-8 µM"}, "[21]": {"system": "NB-4", "assay": "Induction of apoptosis in human NB4 cells assessed as early apoptotic cells at 27 uM preincubated for 1 hrs followed by replacement with fresh culture medium and measured after 24 hrs by Annexin V-FITC/7AAD staining based flow cytometry assay (reference value: 2.15%)", "format": "functional"}, "[22]": {"system": "U-937", "assay": "Induction of cell cycle arrest in human U-937 cells overexpressing p53-V272M mutant assessed as upregulation of GADD45A gene expression by RT-qPCR analysis", "format": "functional, cell-based"}, "[23]": {"system": "Cellular tumor antigen p53 (Homo sapiens), P04637 [V272M]", "assay": "Rescue of p53-V272M mutant transcriptional activity on PUMA promoter in human NCI-H1299 cells assessed as fold change in transcriptional activity at 10 uM pretreated for 10 mins to1 hr followed by replacement with fresh culture media and measured after 24 hrs by firefly/renilla based luciferase reporter assay", "format": "cell-based", "settings": "filed as activator, time 10-60 min"}, "[24]": {"system": "NCI-H1299", "assay": "Inhibition of colony formation in human NCI-H1299 cells harboring p53-V272M mutant at 2 to 32 uM pretreated for 1 hr followed by culturing in fresh medium and measured on day 7 by crystal violet staining based assay", "format": "functional, cell-based", "settings": "dose 2-32 µM"}, "[25]": {"system": "NCI-H1299", "assay": "Upregulation of PUMA protein expression in human NCI-H1299 cells overexpressing p53-V272M mutant pretreated for 1 hr followed by culturing in fresh medium for 16 hrs by Western blot analysis", "format": "functional, cell-based"}, "[26]": {"system": "HL-60", "assay": "Upregulation of MDM2 protein expression in human HL-60 cells overexpressing p53-V272M mutant pretreated for 1 hr followed by culturing in fresh medium for 16 hrs by Western blot analysis", "format": "functional, cell-based"}, "[27]": {"system": "U-937", "assay": "Induction of senescence in human U-937 cells harboring p53-V272M mutant assessed as increase in SA-beta-gal positive cells at 0.5 to 8 uM pretreated for 1 hr followed by culturing in fresh medium for 8 hrs by […] microscopic analysis", "format": "functional, cell-based", "settings": "dose 0.5-8 µM"}, "[28]": {"system": "NB-4", "assay": "Induction of apoptosis in human NB4 cells assessed as late apoptotic cells at 3 uM preincubated for 1 hrs followed by replacement with fresh culture medium and measured after 24 hrs by Annexin V-FITC/7AAD staining based flow cytometry assay (reference value: 3.71%)", "format": "functional"}, "[29]": {"assay": "Drug accumulation in ICR mouse kidney at 10 mg/kg, iv measured upto 24 hrs by ICP-MS analysis", "format": "ADME, organism-based", "settings": "in vivo"}, "[30]": {"system": "HL-60", "assay": "Upregulation of PUMA protein expression in human HL-60 cells overexpressing p53-V272M mutant pretreated for 1 hr followed by culturing in fresh medium for 16 hrs by Western blot analysis", "format": "functional, cell-based"}}, "note": "Active and inactive are the calls of the source. The rule behind the calls is not given here.", "data": [{"smiles": "CC(=O)OC[C@H]1O[C@@H](S[As]2SCCS2)[C@H](OC(C)=O)[C@@H](OC(C)=O)[C@@H]1OC(C)=O", "values": [{"measurement": "Activity", "setting": "[1]", "result": "inactive"}, {"measurement": "Activity", "setting": "[2]", "result": "Active"}, {"measurement": "Activity", "setting": "[3]", "result": "Active"}, {"measurement": "Activity", "setting": "[4]", "result": "Active"}, {"measurement": "Activity", "setting": "[5]", "result": "Active"}, {"measurement": "Activity", "setting": "[6]", "result": "Active"}, {"measurement": "Activity", "setting": "[7]", "result": "Active"}, {"measurement": "Activity", "setting": "[8]", "result": "Active"}, {"measurement": "Activity", "setting": "[9]", "result": 0.02}, {"measurement": "Activity", "setting": "[10]", "result": "Dose-Dependent Effect"}, {"measurement": "Activity", "setting": "[11]", "result": "Active"}, {"measurement": "MST", "setting": "[12]", "result": 16, "unit": "days"}, {"measurement": "Activity", "setting": "[13]", "result": "Active"}, {"measurement": "CLH", "setting": "[14]", "result": 13.7, "unit": "%"}, {"measurement": "Activity", "setting": "[15]", "result": "Dose-Dependent Effect"}, {"measurement": "MST", "setting": "[16]", "result": 18, "unit": "days"}, {"measurement": "Drug uptake", "setting": "[17]", "result": "Active"}, {"measurement": "Activity", "setting": "[18]", "result": "Active"}, {"measurement": "inhibition", "setting": "[19]", "result": "Active"}, {"measurement": "Activity", "setting": "[20]", "result": "Active"}, {"measurement": "Activity", "setting": "[21]", "result": 15.6, "unit": "%"}, {"measurement": "Activity", "setting": "[22]", "result": "Active"}, {"measurement": "fold change (FC)", "setting": "[23]", "result": 112}, {"measurement": "inhibition", "setting": "[24]", "result": "Active"}, {"measurement": "Activity", "setting": "[25]", "result": "Active"}, {"measurement": "Activity", "setting": "[26]", "result": "Active"}, {"measurement": "Activity", "setting": "[27]", "result": "inactive"}, {"measurement": "Activity", "setting": "[28]", "result": 4.45, "unit": "%"}, {"measurement": "Drug uptake", "setting": "[29]", "result": "Active"}, {"measurement": "Activity", "setting": "[30]", "result": "Active"}]}]}
